{"source": "patent US20040122081A1", "about": "“Pharmaceutical compositions and methods of using taxane derivatives” (priority 2002, published 2004)", "assay_type_in_all_cases": "physicochemical", "key": {"[1]": {"test": "Intrinsic aqueous solubility", "conditions": "water", "source_text": "Therefore, it was necessary to formulate the compound in such a way to get the desired solubility at a physiological pH and maintain stability prior to administration."}, "[2]": {"test": "Stability of solution in presence of POE castor oil at 50° C.", "conditions": "for Potency / Total Impurities: solution containing dehydrated alcohol and POE castor oil", "source_text": "As shown below, the stability of the solution containing POE castor oil was much lower than the injection solution without the co-solvent."}, "[3]": {"test": "Effect of pH on drug substance stability in ethanol:buffer solutions", "conditions": "for % Compound Remaining / Total Impurity Index: 1 mg/mL in 75% v/v ethanol:0.01M tartrate, 18 days 50° C.", "experimental": "The effect of pH on the drug substance stability was also studied. The buffer pH providing maximum stability was determined by comparing the stability of prototype formulations of the drug substance. […] Relative area percents of drug peaks were evaluated following 2 days storage at 85° C. […] Subsequent experiments evaluated stability (1 mg drug/mL) in 75% v/v ethanol:0.01M tartrate buffers. Three mL aliquots of samples were dispensed into 5 cc Type I glass vials and closed with West 4405/50 20 mm stoppers. Percent drug substance remaining, and impurities were evaluated following 18 days storage at 50° C. and compared to initial values."}, "[4]": {"test": "Solubility in prototype formulation (75% v/v dehydrated alcohol, 10 mM tartrate buffer, apparent pH 5.4)", "conditions": "aqueous with cosolvent or surfactant or cyclodextrin, thermodynamic from solid", "experimental": "Solubility of four lots of drug substance was evaluated in the prototype formulation developed; 75% v/v dehydrated alcohol, 10 mM tartrate buffer resulting in an apparent pH of 5.4. 15 mg/mL of drug substance were used. 5 mL aliquots of the solution were dispensed into glass vials and an additional (˜50 mg) of drug substance was added. The vials were closed, sealed and stirred for 16 hours at room temperature. Samples were filtered and analyzed by HPLC for drug concentration."}, "[5]": {"test": "Solubility in aqueous dehydrated alcohol / POE castor oil solutions", "conditions": "aqueous dehydrated alcohol/POE castor oil solution, 24 °C, aqueous with cosolvent or surfactant or cyclodextrin, thermodynamic from solid, stirred 16 hours, read-out: Drug Solubility", "experimental": "However, this solution cannot be injected directly into patients as the non-aqueous components exceed 20%, thus potentially causing irritation at the injection site. […] It has been shown that the precipitation can be avoided by inclusion of a co-solvent such as polyoxyethylated (POE) castor oil in the formulation. Subsequently, solubility of the drug substance was determined in solutions containing various amounts of dehydrated alcohol and POE castor oil. Approximately 20 mg of drug was added to 3 mL aliquots of the solutions shown below in Table III. Samples were stirred for 16 hours, filtered trough 0.45 micron nylon syringe filters and analyzed by HPLC for drug concentration."}, "[6]": {"test": "Equilibrium solubility in diluted drug product (mixed two-vial formulation)", "conditions": "7.5% ethanol, 4% POE castor oil in tartrate buffer; for solubility thermodynamic at 16 h: 24 °C", "experimental": "A study was also undertaken to determine the equilibrium solubility of Compound Ia in the mixture obtained by mixing the contents of the two vial formulation. Ten milliliters of the mixed solution was transferred into four 10 cc Type I flint glass vials. To each of these aliquots, approximately 25 mg of drug substance was added. A different lot of drug substance was added to each vial. Vials were closed with West Teflon-faced stoppers, sealed with aluminum seals and stirred for 16 hours at room temperature, protected from light. Samples were filtered through 0.45 micron hydrophilic PVDF membranes and analyzed by HPLC for drug concentration. Solubility results are listed below in Table VI. […] Samples were prepared and stirred at 24±3° C. for about 5 hours and placed in a 5±3° C. storage chamber for about 17 hours. Upon removal from the storage chamber, samples were immediately filtered and analyzed by HPLC for drug concentration."}, "[7]": {"test": "Dilution of drug solution with aqueous diluents", "conditions": "15 mg/mL drug solution (75% ethanol/10 mM tartrate buffer, apparent pH 5.4) diluted with 0.9% sodium chloride injection or 5% dextrose injection"}, "[8]": {"test": "Solubility of compound in a co-solvent:water mixture", "conditions": "aqueous with cosolvent or surfactant or cyclodextrin, thermodynamic from solid, stirred over 16 hours", "experimental": "Approximately 25 mg of drug substance was added to 2 mL aqueous solution of ethanol (33%, 50% and 75% v/v). An additional 10 mg of drug substance was added to the 75% sample as all drug appeared to dissolve. A similar study was performed by adding approximately 25 mg drug substance to 2 mL aqueous solution of tertiary butyl alcohol (33%, 50% and 66% v/v). Samples were stirred for over 16 hours, filtered through 0.45μ nylon syringe filters, diluted and analyzed by HPLC for drug concentration. The results shown in Table I indicate that among the conditions evaluated, 75% v/v dehydrated alcohol in water for injection provided the highest solubility. Based on the results of these studies, a formulation of 15 mg/mL drug substance in 75% v/v ethanol:water was selected for further studies."}, "[9]": {"conditions": "Buffer pH 2.6, apparent pH 3.88"}, "[10]": {"conditions": "Buffer pH 3.0, apparent pH 4.67"}, "[11]": {"conditions": "Buffer pH 3.5, apparent pH 5.15"}, "[12]": {"conditions": "Buffer pH 3.6, apparent pH 5.20"}, "[13]": {"conditions": "Buffer pH 3.8, apparent pH 5.39"}, "[14]": {"conditions": "Buffer pH 4.0, apparent pH 5.69"}, "[15]": {"conditions": "Buffer pH 4.0, apparent pH 5.81"}, "[16]": {"conditions": "Buffer pH 4.2, apparent pH 5.99"}, "[17]": {"conditions": "Buffer pH 4.4, apparent pH 6.24"}}, "note": "Values joined by “and” are separate entries in the source; they are usually repeats but may differ in a detail not shown here. Equal values may be shown once. Read-outs that look alike come from different tables or passages of the source.", "data": [{"smiles": "CSCO[C@H]1C[C@H]2OC[C@@]2(OC(C)=O)[C@H]2[C@H](OC(=O)c3ccccc3)[C@]3(O)C[C@H](OC(=O)[C@H](O)[C@@H](NC(=O)c4ccccc4)c4ccccc4)C(C)=C([C@@H](OC(C)=O)C(=O)[C@]12C)C3(C)C", "note": "[Compound Ia, 7-O-methylthiomethylpaclitaxel]", "values": [{"measurement": "solubility", "setting": "[1]", "value": "< 0.1", "unit": "µg/mL"}, {"measurement": "Potency", "setting": "[2]; 6 days @ 50° C.", "value": 2000, "unit": "µg/mL"}, {"measurement": "Total Impurities", "setting": "[2]; 6 days @ 50° C.", "value": 10.9}, {"measurement": "Potency", "setting": "[2]; 16 days @ 50° C.", "value": 1900, "unit": "µg/mL"}, {"measurement": "Total Impurities", "setting": "[2]; 16 days @ 50° C.", "value": 16.5}, {"measurement": "Potency", "setting": "[2]; Initial", "value": 2200, "unit": "µg/mL"}, {"measurement": "Total Impurities", "setting": "[2]; Initial", "value": 2.1}, {"measurement": "% potency remaining", "setting": "[2]; injection solution (ethanol, pH 5.4 tartrate buffer) w/o POE castor oil, 28 days stored at 50° C.", "value": 100, "unit": "%"}, {"measurement": "% potency remaining", "setting": "[2]; injection solution (ethanol, pH 5.4 tartrate buffer) with POE castor oil 4%, 16 days stored at 50° C.", "value": 86, "unit": "%"}, {"measurement": "buffer pH at which the best stability was achieved", "setting": "[3]; 0.2 mg drug/mL in 16.7% v/v ethanol:0.1M citrate buffers, 2 days storage at 85° C., HPLC relative area percent", "value": 4.5}, {"measurement": "apparent pH of the most stable solution", "setting": "[3]; 1 mg drug/mL in 75% v/v ethanol:0.01M tartrate buffers, 18 days at 50° C., corresponds to tartrate buffer pH 3.8", "value": 5.4}, {"measurement": "% Compound Remaining", "setting": "[3]; [9]", "value": 94.4, "unit": "%"}, {"measurement": "Total Impurity Index", "setting": "[3]; [9]", "value": 4.16, "unit": "Area %"}, {"measurement": "% Compound Remaining", "setting": "[3]; [10]", "value": 97.1, "unit": "%"}, {"measurement": "Total Impurity Index", "setting": "[3]; [10]", "value": 2.51, "unit": "Area %"}, {"measurement": "% Compound Remaining", "setting": "[3]; [11]", "value": 97.1, "unit": "%"}, {"measurement": "Total Impurity Index", "setting": "[3]; [11]", "value": 2.06, "unit": "Area %"}, {"measurement": "% Compound Remaining", "setting": "[3]; [12]", "value": 98.1, "unit": "%"}, {"measurement": "Total Impurity Index", "setting": "[3]; [12]", "value": 1.36, "unit": "Area %"}, {"measurement": "% Compound Remaining", "setting": "[3]; [13]", "value": 101, "unit": "%"}, {"measurement": "Total Impurity Index", "setting": "[3]; [13]", "value": 1.34, "unit": "Area %"}, {"measurement": "% Compound Remaining", "setting": "[3]; [14]", "value": 100, "unit": "%"}, {"measurement": "Total Impurity Index", "setting": "[3]; [14]", "value": 1.62, "unit": "Area %"}, {"measurement": "% Compound Remaining", "setting": "[3]; [15]", "value": 98.1, "unit": "%"}, {"measurement": "Total Impurity Index", "setting": "[3]; [15]", "value": 1.99, "unit": "Area %"}, {"measurement": "% Compound Remaining", "setting": "[3]; [16]", "value": 99, "unit": "%"}, {"measurement": "Total Impurity Index", "setting": "[3]; [16]", "value": 1.67, "unit": "Area %"}, {"measurement": "% Compound Remaining", "setting": "[3]; [17]", "value": 100, "unit": "%"}, {"measurement": "Total Impurity Index", "setting": "[3]; [17]", "value": 1.84, "unit": "Area %"}, {"measurement": "solubility thermodynamic", "setting": "[4]; 5 °C, 5±3° C., read-out: equilibrium solubility", "value": 23000, "unit": "µg/mL"}, {"measurement": "solubility at 16 h", "setting": "[4]; 25 °C, room temperature, average of four lots", "value": "~22000", "unit": "µg/mL"}, {"measurement": "solubility at 16 h", "setting": "[5]; Aqueous vehicle: Dehydrated Alcohol 3.75% v/v, POE Castor Oil 2% v/v", "value": 960, "unit": "µg/mL"}, {"measurement": "solubility at 16 h", "setting": "[5]; Aqueous vehicle: Dehydrated Alcohol 7.50% v/v, POE Castor Oil 4% v/v", "value": "> 1500", "unit": "µg/mL"}, {"measurement": "solubility at 16 h", "setting": "[5]; Aqueous vehicle: Dehydrated Alcohol 9.375% v/v, POE Castor Oil 5% v/v", "value": 2910, "unit": "µg/mL"}, {"measurement": "solubility thermodynamic", "setting": "[6]; 5 °C, aqueous with cosolvent or surfactant or cyclodextrin, thermodynamic from solid, 5 ± 3° C.", "value": 2460, "unit": "µg/mL"}, {"measurement": "solubility thermodynamic at 16 h", "setting": "[6]; aqueous with cosolvent or surfactant or cyclodextrin, thermodynamic from solid, 24 ± 3° C., individual lots of drug substance, read-out: Equilibrium Solubility in Diluted Drug Product", "value": 2580, "unit": "µg/mL"}, {"measurement": "solubility thermodynamic at 16 h", "setting": "[6]; aqueous with cosolvent or surfactant or cyclodextrin, thermodynamic from solid, Average @ 24 ± 3° C., four lots, read-out: Equilibrium Solubility in Diluted Drug Product, Average", "value": "~2580", "unit": "µg/mL"}, {"measurement": "Equilibrium Solubility in Diluted Drug Product", "setting": "[6]; 24 ± 3° C., individual lots of drug substance", "value": "2570 µg/mL and 2620 µg/mL and 2560 µg/mL"}, {"measurement": "Equilibrium Solubility in Diluted Drug Product, Average", "setting": "[6]; Average @ 24 ± 3° C., four lots", "value": 2580, "unit": "µg/mL"}, {"measurement": "outcome of dilution with aqueous diluents", "setting": "[7]", "value": "drug precipitation"}, {"measurement": "solubility", "setting": "[8]; ethanol:water mixture, Dehydrated Alcohol, USP 33% v/v in water", "value": 30, "unit": "µg/mL"}, {"measurement": "solubility", "setting": "[8]; ethanol:water mixture, Dehydrated Alcohol, USP 50% v/v in water", "value": 1640, "unit": "µg/mL"}, {"measurement": "solubility", "setting": "[8]; ethanol:water mixture, Dehydrated Alcohol, USP 75% v/v in water", "value": "> 17500", "unit": "µg/mL"}, {"measurement": "solubility", "setting": "[8]; tertiary butyl alcohol:water mixture, Tertiary Butyl Alcohol 33% v/v in water", "value": 190, "unit": "µg/mL"}, {"measurement": "solubility", "setting": "[8]; tertiary butyl alcohol:water mixture, Tertiary Butyl Alcohol 50% v/v in water", "value": 3130, "unit": "µg/mL"}, {"measurement": "solubility", "setting": "[8]; tertiary butyl alcohol:water mixture, Tertiary Butyl Alcohol 66% v/v in water", "value": 13000, "unit": "µg/mL"}]}]}
